Our source for the IC50 values is patent publication US12398120B2, “Substituted hydantoinamides as ADAMTS7 antagonists” (BAYER AKTIENGESELLSCHAFT, priority 2019, dated 2025).

A word on the IC50: it is the concentration at which inhibition is half-maximal. Higher therefore signals weaker potency.

The target in this assay is ADAMTS4 (Homo sapiens (Human), UniProt O75173). Kind of assay: Selectivity assay for ADAMTS-7 modulators: ADAMTS4 (FRET substrate). Format: biochemical. The settings on record: ADAMTS4 (R&D 4307-AD) 50 nM, substrate Dabcyl-EEVKAKVQPY-Glu(Edans)-NH2 1 μM, 120 min, 32° C. In a few lines: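 Activity read as rising fluorescence after a FRET substrate is cleaved by human ADAMTS4, with reactions started by substrate addition to wells holding compound or DMSO. Percent inhibition plotted against concentration gave IC50.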
ADAMTS4, sequence (O75173 213-685): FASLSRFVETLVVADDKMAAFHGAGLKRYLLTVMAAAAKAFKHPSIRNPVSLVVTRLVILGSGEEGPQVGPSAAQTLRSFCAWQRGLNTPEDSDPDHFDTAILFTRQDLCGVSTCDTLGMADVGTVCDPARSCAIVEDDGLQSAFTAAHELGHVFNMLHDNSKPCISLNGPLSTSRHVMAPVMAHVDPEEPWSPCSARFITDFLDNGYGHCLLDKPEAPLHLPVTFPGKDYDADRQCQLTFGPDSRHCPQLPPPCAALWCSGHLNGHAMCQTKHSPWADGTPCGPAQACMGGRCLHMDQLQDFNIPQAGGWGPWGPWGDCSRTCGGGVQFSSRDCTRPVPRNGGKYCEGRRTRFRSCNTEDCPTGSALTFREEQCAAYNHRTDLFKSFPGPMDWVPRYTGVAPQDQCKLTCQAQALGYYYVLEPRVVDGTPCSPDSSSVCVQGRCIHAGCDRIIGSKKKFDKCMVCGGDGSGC

For the compound `O=C1NC(=O)C(CNC(=O)c2ccc(F)cc2-c2ccc(C(F)(F)F)cc2)(c2cscn2)N1` (racemic) [Example 198, Rac-N-{[2,5-Dioxo-4-(1,3-Thiazol-4-Yl)Imidazolidin-4-Yl]Methyl}-5-Fluoro-4′-(Trifluoromethyl)[Biphenyl]-2-Carboxamide], the IC50 came out at 39 µM.

In turn, `Cc1scnc1C1(CNC(=O)c2ccc(F)cc2-c2ccc(Cl)cc2)NC(=O)NC1=O` (racemic) [Example 169, Rac-4′-Chloro-5-Fluoro-N-{[4-(5-Methyl-1,3-Thiazol-4-Yl)-2,5-Dioxoimidazolidin-4-Yl]Methyl}[Biphenyl]-2-Carboxamide] had an IC50 of 8.5 µM.

In turn, `O=C1NC(=O)C(CNC(=O)c2ccc(F)c(F)c2-c2ccc(C(F)(F)F)cc2)(C2(F)CC2)N1` (racemic) [Example 256, Rac-5,6-Difluoro-N-{[4-(1-Fluorocyclopropyl)-2,5-Dioxoimidazolidin-4-Yl]Methyl}-4′-(Trifluoromethyl)[Biphenyl]-2-Carboxamide] registered an IC50 of 28 µM.

The compound `Cc1nocc1C1(CNC(=O)c2ccccc2-c2ccc(C(F)(F)F)nc2)NC(=O)NC1=O` (stereo not drawn) [Example 65, Ent-N-{[4-(3-Methyl-1,2-Oxazol-4-Yl)-2,5-Dioxoimidazolidin-4-Yl]Methyl}-2-[6-(Trifluoromethyl)Pyridin-3-Yl]Benzamide] had an IC50 of 20 µM.

`O=C1NC(=O)[C@](CNC(=O)c2ccc(Cl)cc2-c2ccc(C(F)(F)F)nc2)(C2CC2)N1` [Example 75, 4-Chloro-N-{[(4R)-4-Cyclopropyl-2,5-Dioxoimidazolidin-4-Yl]Methyl}-2-[6-(Trifluoromethyl)Pyridin-3-Yl]Benzamide] came in with an IC50 of 10 µM.

In turn, `O=C1NC(=O)C(CNC(=O)c2ccccc2-c2ccc(C(F)(F)F)cc2)(C2(F)CC2)N1` (stereo not drawn) [Example 255, Ent-N-{[4-(1-Fluorocyclopropyl)-2,5-Dioxoimidazolidin-4-Yl]Methyl}-4′-(Trifluoromethyl)[Biphenyl]-2-Carboxamide] yielded an IC50 of 10 µM.

`Cc1ccc(C(=O)NCC2(c3ncsc3C)NC(=O)NC2=O)c(-c2ccc(C(F)(F)F)cc2)c1` (single isomer, unassigned; ent-5) [Example 168, Ent-5-Methyl-N-{[4-(5-Methyl-1,3-Thiazol-4-Yl)-2,5-Dioxoimidazolidin-4-Yl]Methyl}-4′-(Trifluoromethyl)[Biphenyl]-2-Carboxamide] gave an IC50 of 1.9 µM.

Turning to `Cc1ccc(C(=O)NC[C@@]2(C3CC3)NC(=O)NC2=O)c(-c2ccc(C(F)(F)F)cc2)c1C` [Example 145, N-{[(4R)-4-Cyclopropyl-2,5-Dioxoimidazolidin-4-Yl]Methyl}-5,6-Dimethyl-4′-(Trifluoromethyl)[1,1′-Biphenyl]-2-Carboxamide], the IC50 was determined as 2.8 µM.

In turn, `Cn1nccc1C1(CNC(=O)c2cccc(F)c2-c2ccc(C(F)(F)F)cc2)NC(=O)NC1=O` (single isomer, unassigned; ent-6) [Example 195, Ent-6-Fluoro-N-{[4-(1-Methyl-1H-Pyrazol-5-Yl)-2,5-Dioxoimidazolidin-4-Yl]Methyl}-4′-(Trifluoromethyl)[Biphenyl]-2-Carboxamide] came in with an IC50 of 4.63 µM.

`Cc1ccc(-c2ccccc2C(=O)NCC2(C(C)C)NC(=O)NC2=O)cc1` (racemic) [Example 204, Rac-N-[(4-Isopropyl-2,5-Dioxoimidazolidin-4-Yl)Methyl]-4′-Methyl[Biphenyl]-2-Carboxamide]: the midpoint of inhibition, the IC50, lay at 22 µM.

Take `Cc1ncsc1C1(CNC(=O)c2ccccc2-c2ccc(Cl)cc2)NC(=O)NC1=O` (single isomer, unassigned; ent-4) [Example 9, Ent-4′-Chloro-N-{[4-(4-Methyl-1,3-Thiazol-5-Yl)-2,5-Dioxoimidazolidin-4-Yl]Methyl}[Biphenyl]-2-Carboxamide]: the IC50 was 4.8 µM.

Regarding `Cc1cnoc1C1(CNC(=O)c2ccccc2-c2ccc(C(F)(F)F)cc2)NC(=O)NC1=O` (racemic) [Example 59, Rac-N-{[4-(4-Methyl-1,2-Oxazol-5-Yl)-2,5-Dioxoimidazolidin-4-Yl]Methyl}-4′-(Trifluoromethyl)[Biphenyl]-2-Carboxamide], 23 µM corresponded to half-maximal inhibition (IC50).

As to `Cn1ccnc1C1(CNC(=O)c2cc(F)c(F)cc2-c2ccc(C3CC3(F)F)cc2)NC(=O)NC1=O` (centres unmarked) [Example 143, 4′-(2,2-Difluorocyclopropyl)-4,5-Difluoro-N-{[4-(1-Methyl-1H-Imidazol-2-Yl)-2,5-Dioxoimidazolidin-4-Yl]Methyl}[1,1′-Biphenyl]-2-Carboxamide], the IC50 was determined as 4.6 µM.

The compound `Cc1cc(C2(CNC(=O)c3ccccc3-c3ccc(C(F)(F)F)cc3)NC(=O)NC2=O)n(C)n1` (racemic) [Example 275, Rac-N-{[4-(1,3-Dimethyl-1H-Pyrazol-5-Yl)-2,5-Dioxoimidazolidin-4-Yl]Methyl}-4′-(Trifluoromethyl)[Biphenyl]-2-Carboxamide] came in with an IC50 of 9.1 µM.

The compound `Cc1ncoc1C1(CNC(=O)c2ccccc2-c2ccc(C(F)(F)F)cc2)NC(=O)NC1=O` (racemic) [Example 43, Rac-N-{[4-(4-Methyl-1,3-Oxazol-5-Yl)-2,5-Dioxoimidazolidin-4-Yl]Methyl}-4′-(Trifluoromethyl)[Biphenyl]-2-Carboxamide] registered an IC50 of 28 µM.

Regarding `O=C1NC(=O)[C@](CNC(=O)c2ccccc2-c2ccc(C(F)(F)F)c(Cl)c2)(C2CC2)N1` [Example 226, 3′-Chloro-N-{[(4R)-4-Cyclopropyl-2,5-Dioxoimidazolidin-4-Yl]Methyl}-4′-(Trifluoromethyl)[1,1′-Biphenyl]-2-Carboxamide], the IC50 was over 50 µM.

For the compound `O=C1NC(=O)[C@](CNC(=O)c2cc(F)c(F)cc2-c2ccc(C(F)(F)F)cc2)(C2CC2)N1` [Example 20, N-{[(4R)-4-Cyclopropyl-2,5-Dioxoimidazolidin-4-Yl]Methyl}-4,5-Difluoro-4′-(Trifluoromethyl)[Biphenyl]-2-Carboxamide], 28 µM corresponded to half-maximal inhibition (IC50).

For the compound `O=C1NC(=O)[C@](CNC(=O)c2ccc(Cl)cc2-c2ccc(Cl)cc2)(C2CC2)N1` [Example 232, 4′,5-Dichloro-N-{[(4R)-4-Cyclopropyl-2,5-Dioxoimidazolidin-4-Yl]Methyl}[1,1′-Biphenyl]-2-Carboxamide], the IC50 came to 3.7 µM.

The compound `O=C1NC(=O)C(CNC(=O)c2ccccc2-c2ccc(C(F)(F)F)cc2)(c2ncsc2C(F)(F)F)N1` (racemic) [Example 263, Rac-N-({2,5-Dioxo-4-[5-(Trifluoromethyl)-1,3-Thiazol-4-Yl]Imidazolidin-4-Yl}Methyl)-4′-(Trifluoromethyl)[Biphenyl]-2-Carboxamide] yielded an IC50 of 32 µM.

In turn, `CCn1nccc1C1(CNC(=O)c2ccccc2-c2ccc(C(F)(F)F)cc2)NC(=O)NC1=O` (racemic) [Example 4, Rac-N-{[4-(1-Ethyl-1H-Pyrazol-5-Yl)-2,5-Dioxoimidazolidin-4-Yl]Methyl}-4′-(Trifluoromethyl)[Biphenyl]-2-Carboxamide] displayed an IC50 of 19 µM.

Regarding `Cn1nccc1C1(CNC(=O)c2ccc(F)cc2-c2ccc(Cl)cc2)NC(=O)NC1=O` (single isomer, unassigned; ent-4) [Example 180, Ent-4′-Chloro-5-Fluoro-N-{[4-(1-Methyl-1H-Pyrazol-5-Yl)-2,5-Dioxoimidazolidin-4-Yl]Methyl}[Biphenyl]-2-Carboxamide], the IC50 came out at 17.8 µM.

In turn, `Cn1nccc1C1(CNC(=O)c2ccccc2-c2ccc(Cl)cc2)NC(=O)NC1=O` (single isomer, unassigned; ent-4) [Example 182, Ent-4′-Chloro-N-{[4-(1-Methyl-1H-Pyrazol-5-Yl)-2,5-Dioxoimidazolidin-4-Yl]Methyl}[Biphenyl]-2-Carboxamide] returned an IC50 of 4.03 µM.

Turning to `Cc1cnoc1C1(CNC(=O)c2ccccc2-c2ccc(C(F)(F)F)cc2)NC(=O)NC1=O` (stereo not drawn) [Example 88, Ent-N-{[4-(4-Methyl-1,2-Oxazol-5-Yl)-2,5-Dioxoimidazolidin-4-Yl]Methyl}-4′-(Trifluoromethyl)[Biphenyl]-2-Carboxamide], the midpoint of inhibition, the IC50, lay at 9.1 µM.

Compound `O=C1NC(=O)C(CNC(=O)c2ccccc2-c2ccc(C(F)(F)F)cc2)(c2cscn2)N1` (racemic) [Example 196, Rac-N-{[2,5-Dioxo-4-(1,3-Thiazol-4-Yl)Imidazolidin-4-Yl]Methyl}-4′-(Trifluoromethyl)[Biphenyl]-2-Carboxamide] had an IC50 of 30 µM.

On to `Cc1nsnc1C1(CNC(=O)c2ccccc2-c2ccc(C(F)(F)F)nc2)NC(=O)NC1=O` (stereo not drawn) [Example 91, Ent-N-{[4-(4-Methyl-1,2,5-Thiadiazol-3-Yl)-2,5-Dioxoimidazolidin-4-Yl]Methyl}-2-[6-(Trifluoromethyl)Pyridin-3-Yl]Benzamide], for which it took 30 µM to reach half-maximal inhibition (IC50).

`Cc1conc1C1(CNC(=O)c2ccccc2-c2ccc(C(F)(F)F)cc2)NC(=O)NC1=O` (racemic) [Example 44, Rac-N-{[4-(4-Methyl-1,2-Oxazol-3-Yl)-2,5-Dioxoimidazolidin-4-Yl]Methyl}-4′-(Trifluoromethyl)[Biphenyl]-2-Carboxamide] came in with an IC50 of 11 µM.

For the compound `O=C1NC(=O)C(CNC(=O)c2ccccc2-c2ccc(C(F)(F)F)cc2)(c2ccnn2C(F)F)N1` (stereo not drawn) [Example 261, Ent-N-({4-[1-(Difluoromethyl)-1H-Pyrazol-5-Yl]-2,5-Dioxoimidazolidin-4-Yl}Methyl)-4′-(Trifluoromethyl)[Biphenyl]-2-Carboxamide], the IC50 is over 50 µM.

With `Cn1nccc1C1(CNC(=O)c2ccc(F)cc2-c2ccc(C(F)(F)F)nc2)NC(=O)NC1=O` (single isomer, unassigned; ent-4) [Example 291, Ent-4-Fluoro-N-{[4-(1-Methyl-1H-Pyrazol-5-Yl)-2,5-Dioxoimidazolidin-4-Yl]Methyl}-2-[6-(Trifluoromethyl)Pyridin-3-Yl]Benzamide], half-maximal inhibition (IC50) was put at 14 µM.

With `O=C1NC(=O)[C@](CNC(=O)c2ccccc2-c2ccc(C(F)F)cc2)(C2CC2)N1` [Example 122, N-{[(4R)-4-Cyclopropyl-2,5-Dioxoimidazolidin-4-Yl]Methyl}-4′-(Difluoromethyl)[Biphenyl]-2-Carboxamide], the IC50 was 7.9 µM.
